Legend:
Assay type in all cases: in vivo
[1] = system: Johnsongrass (Sorghum halepense, SORHA); experiment: Pre-emerge greenhouse herbicide test, phytotoxicity rating; details: 14 days after application, rating scale 0-100
Method in brief: (§1)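 Seeds sown in sandy loam mix one day before track-sprayer application of compounds in acetone at 125–1000 g ai/ha (187 l/ha), then surface-watered to incorporate and bottom-watered. Visual rating 14 days after application on a 0–100 scale (0 = no damage, 100 = all plants dead).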

[2] = system: redroot pigweed (Amaranthus retroflexus, AMARE); experiment: as above; details: 14 days after application, rating scale 0-100
Method in brief: as §1

[3] = system: common ragweed (Ambrosia artemisiifolia L., AMBEL); experiment: as above; details: 14 days after application, rating scale 0-100
Method in brief: as §1

[4] = system: velvetleaf (Abutilon theophrasti, ABUTH); experiment: as above; details: 14 days after application, rating scale 0-100
Method in brief: as §1

[5] = system: ivyleaf morningglory (Ipomoea hederacea, IPOHE); experiment: as above; details: 14 days after application, rating scale 0-100
Method in brief: as §1

[6] = system: lambsquarters (Chenopodium album, CHEAL); experiment: as above; details: 14 days after application, rating scale 0-100
Method in brief: as §1

[7] = system: green foxtail (Setaria viridis, SETVI); experiment: as above; details: 14 days after application, rating scale 0-100
Method in brief: as §1

[8] = system: barnyardgrass (Echinochloa crusgalli, ECHCG); experiment: as above; details: 14 days after application, rating scale 0-100
Method in brief: as §1

[9] = system: sicklepod (Cassia obtusifolia, CASOB); experiment: as above; details: 14 days after application, rating scale 0-100
Method in brief: as §1

[10] = system: large crabgrass (Digitaria sanguinalis, DIGSA); experiment: as above; details: 14 days after application, rating scale 0-100
Method in brief: as §1

[11] = system: common ragweed (Ambrosia artemisiifolia L., AMBEL); experiment: Post-emerge greenhouse herbicide test, phytotoxicity rating; details: 14 days after application; for phytotoxicity rating AMBEL: scale 0-100
From the text: A standard greenhouse herbicide activity screening system was used to evaluate the herbicidal efficacy and crop safety of these test compounds. Six broadleaf weed species including redroot pigweed (Amaranthus retroflexus, AMARE), velvetleaf (Abutilon theophrasti, ABUTH), sicklepod (Cassia obtusifolia, CASOB), ivyleaf morningglory (Ipomoea hederacea, IPOHE), lambsquarters (Chenopodium album, CHEAL) and common ragweed (Ambrosia artemisiifolia L., AMBEL) were used as test species. Four grass weed species including green foxtail (Setaria viridis, SETVI), barnyardgrass (Echinochloa crusgalli, ECHCG), Johnsongrass (Sorghum halepense, SORHA), and large crabgrass (Digitaria sanguinalis, DIGSA) were also used. In addition, three crop species, field corn (Zea mays L., var. Dekalb 535, CORN), soybean (Glycine max L., var. Pella 86, SOY), and upland rice (Oryza sp., var.Tebonnet, RICE) were included.
All test compounds were dissolved in acetone and applied to the test units in a volume of 187 l/ha. […] Plants were arranged on a shelf so that the top of the canopy (post-emerge) or top of the soil surface (pre-emerge) was 40-45 cm below the nozzle. Pressurized air was used to force the test solution through the nozzle as it was mechanically advanced (via electrically driven chain drive) over the top of all test plants/pots. This application simulates a typical commercial field herbicide application.
In the post-emerge test, a commercial non-ionic surfactant was also included (0.25% v/v) to enhance wetting of the leaf surfaces Qf target plants at rates ranging from 63 g ai/ha to 1000 g ai/ha. For post-emerge tests, seeds were planted 8-21 days prior to the test to allow emergence and good foliage development prior to application of the test substances. At the time of the post-emerge application, plants of all species were usually at the 2-3 leaf stage of development. Post-emerge test units were always bottom-watered.
At 14 days after application of the test materials, phytotoxicity ratings were recorded. A rating scale of 0-100 was used as previously described in Research Methods in Weed Science, 2nd edition, B. Truelove, Ed., Southern Weed Science Society, Auburn University, Auburn, Ala., 1977. Briefly, “0” corresponds to no damage and “100” corresponds to complete death of all plants in the test unit. This scale was used both to determine efficacy against weed species and damage to crop species. Herbicide activity data for various compounds of this invention, which are shown by compound number in Tables 1-9, are shown in Tables 13 and 14.

[12] = system: Johnsongrass (Sorghum halepense, SORHA); experiment: as above; details: 14 days after application; for phytotoxicity rating SORHA: scale 0-100
Method in brief: (§2)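 Compounds in acetone with 0.25% v/v non-ionic surfactant were track-sprayed at 187 l/ha over plants at the 2-3 leaf stage, at 63 to 1000 g ai/ha. Pots were bottom-watered. Injury was scored visually 14 days later on a 0-100 scale, where 0 is no damage and 100 is complete plant death.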

[13] = system: redroot pigweed (Amaranthus retroflexus, AMARE); experiment: as above; details: 14 days after application; for phytotoxicity rating AMARE: scale 0-100
Method in brief: as §2

[14] = system: velvetleaf (Abutilon theophrasti, ABUTH); experiment: as above; details: 14 days after application; for phytotoxicity rating ABUTH: scale 0-100
Method in brief: as §2

[15] = system: ivyleaf morningglory (Ipomoea hederacea, IPOHE); experiment: as above; details: 14 days after application; for phytotoxicity rating IPOHE: scale 0-100
Method in brief: as §2

[16] = system: lambsquarters (Chenopodium album, CHEAL); experiment: as above; details: 14 days after application; for phytotoxicity rating CHEAL: scale 0-100
Method in brief: as §2

[17] = system: green foxtail (Setaria viridis, SETVI); experiment: as above; details: 14 days after application; for phytotoxicity rating SETVI: scale 0-100
Method in brief: as §2

[18] = system: barnyardgrass (Echinochloa crusgalli, ECHCG); experiment: as above; details: 14 days after application; for phytotoxicity rating ECHCG: scale 0-100
Method in brief: as §2

[19] = system: sicklepod (Cassia obtusifolia, CASOB); experiment: as above; details: 14 days after application; for phytotoxicity rating CASOB: scale 0-100
Method in brief: as §2

[20] = system: large crabgrass (Digitaria sanguinalis, DIGSA); experiment: as above; details: 14 days after application; for phytotoxicity rating DIGSA: scale 0-100
Method in brief: as §2

[21] = system: field corn (Zea mays L., var. Dekalb 535, CORN); experiment: Pre-emerge greenhouse test, crop damage rating; details: 14 days after application, rating scale 0-100
Method in brief: as §1

[22] = system: upland rice (Oryza sp., var.Tebonnet, RICE); experiment: Pre-emerge greenhouse test, crop damage rating; details: 14 days after application, rating scale 0-100
Method in brief: as §1

[23] = system: soybean (Glycine max L., var. Pella 86, SOY); experiment: Pre-emerge greenhouse test, crop damage rating; parameters: key to SOY crop damage rating: 0 = no damage, 100 = complete death of all plants; details: 14 days after application, rating scale 0-100
Method in brief: as §1

[24] = system: field corn (Zea mays L., var. Dekalb 535, CORN); experiment: Post-emerge greenhouse test, crop damage rating; details: 14 days after application, scale 0-100
Method in brief: as §2

[25] = system: upland rice (Oryza sp., var.Tebonnet, RICE); experiment: Post-emerge greenhouse test, crop damage rating; details: 14 days after application, scale 0-100
Method in brief: as §2

[26] = system: soybean (Glycine max L., var. Pella 86, SOY); experiment: Post-emerge greenhouse test, crop damage rating; parameters: key to crop damage rating SOY: 0-100 scale: 0 = no damage, 100 = complete death of all plants; details: 14 days after application, scale 0-100
Method in brief: as §2

O=c1n(CCCF)nnn1-c1cc(Oc2ncccn2)c(Cl)cc1F [Compound 6-10, 1-[4-chloro-2-fluoro-5-(2-pyrimidyloxy)phenyl]-4-(3-fluoropropyl)-1,4-dihydro-5-oxo-5H-tetrazole]
90: AMARE phytotoxicity rating (0-100) ([13]; 63 g al/ha) | CHEAL phytotoxicity rating (0-100) ([16]; 63 g al/ha)
50: DIGSA phytotoxicity rating (0-100) ([20]; 63 g al/ha)
40: phytotoxicity rating CASOB ([9]; 125 g ai/ha)
30: AMBEL phytotoxicity rating (0-100) ([11]; 63 g al/ha) | SETVI phytotoxicity rating (0-100) ([17]; 63 g al/ha) | ECHCG phytotoxicity rating (0-100) ([18]; 63 g al/ha) | CASOB phytotoxicity rating (0-100) ([19]; 63 g al/ha)
100: phytotoxicity rating SORHA ([1]; 125 g ai/ha) | phytotoxicity rating SORHA ([1]; 500 g ai/ha) | phytotoxicity rating AMARE ([2]; 125 g ai/ha) | phytotoxicity rating AMARE ([2]; 500 g ai/ha) | phytotoxicity rating AMBEL ([3]; 125 g ai/ha) | phytotoxicity rating AMBEL ([3]; 500 g ai/ha) | phytotoxicity rating ABUTH ([4]; 125 g ai/ha) | phytotoxicity rating ABUTH ([4]; 500 g ai/ha) | phytotoxicity rating IPOHE ([5]; 125 g ai/ha) | phytotoxicity rating IPOHE ([5]; 500 g ai/ha) | phytotoxicity rating CHEAL ([6]; 125 g ai/ha) | phytotoxicity rating CHEAL ([6]; 500 g ai/ha) | phytotoxicity rating SETVI ([7]; 125 g ai/ha) | phytotoxicity rating SETVI ([7]; 500 g ai/ha) | phytotoxicity rating ECHCG ([8]; 125 g ai/ha) | phytotoxicity rating ECHCG ([8]; 500 g ai/ha) | phytotoxicity rating CASOB ([9]; 500 g ai/ha) | phytotoxicity rating DIGSA ([10]; 125 g ai/ha) | phytotoxicity rating DIGSA ([10]; 500 g ai/ha) | AMBEL phytotoxicity rating (0-100) ([11]; 500 g al/ha) | SORHA phytotoxicity rating (0-100) ([12]; 500 g al/ha) | AMARE phytotoxicity rating (0-100) ([13]; 500 g al/ha) | ABUTH phytotoxicity rating (0-100) ([14]; 63 g al/ha) | ABUTH phytotoxicity rating (0-100) ([14]; 500 g al/ha) | IPOHE phytotoxicity rating (0-100) ([15]; 63 g al/ha) | IPOHE phytotoxicity rating (0-100) ([15]; 500 g al/ha) | CHEAL phytotoxicity rating (0-100) ([16]; 500 g al/ha) | SETVI phytotoxicity rating (0-100) ([17]; 500 g al/ha) | ECHCG phytotoxicity rating (0-100) ([18]; 500 g al/ha) | CASOB phytotoxicity rating (0-100) ([19]; 500 g al/ha) | DIGSA phytotoxicity rating (0-100) ([20]; 500 g al/ha)
0: SORHA phytotoxicity rating (0-100) ([12]; 63 g al/ha)

CSc1cccnc1Oc1cc(-n2c(=O)n3n(c2=S)CCCC3)c(F)cc1Cl [Compound 8-43]
20: RICE crop damage rating ([22]; Rate 125 g al/ha) | RICE crop damage rating ([22]; Rate 250 g al/ha) | AMARE phytotoxicity rating ([2]; Rate 125 g al/ha) | IPOHE phytotoxicity rating ([5]; Rate 250 g al/ha) | CASOB phytotoxicity rating ([9]; Rate 125 g al/ha) | crop damage rating CORN ([24]; rate 63 g ai/ha) | phytotoxicity rating SORHA ([12]; rate 63 g ai/ha) | phytotoxicity rating ECHCG ([18]; rate 63 g ai/ha) | phytotoxicity rating DIGSA ([20]; rate 250 g ai/ha)
90: DIGSA phytotoxicity rating ([10]; Rate 125 g al/ha) | phytotoxicity rating AMARE ([13]; rate 250 g ai/ha) | phytotoxicity rating CHEAL ([16]; rate 63 g ai/ha)
0: CORN crop damage rating ([21]; Rate 125 g al/ha) | CORN crop damage rating ([21]; Rate 250 g al/ha) | SORHA phytotoxicity rating ([1]; Rate 125 g al/ha) | SORHA phytotoxicity rating ([1]; Rate 250 g al/ha) | IPOHE phytotoxicity rating ([5]; Rate 125 g al/ha) | ECHCG phytotoxicity rating ([8]; Rate 125 g al/ha) | ECHCG phytotoxicity rating ([8]; Rate 250 g al/ha) | SOY crop damage rating ([23]; Rate 125 g al/ha) | SOY crop damage rating ([23]; Rate 250 g al/ha) | phytotoxicity rating DIGSA ([20]; rate 63 g ai/ha)
40: phytotoxicity rating SETVI ([17]; rate 63 g ai/ha)
95: phytotoxicity rating CASOB ([19]; rate 63 g ai/ha)
60: phytotoxicity rating AMARE ([13]; rate 63 g ai/ha) | phytotoxicity rating SETVI ([17]; rate 250 g ai/ha)
10: ABUTH phytotoxicity rating ([4]; Rate 125 g al/ha) | crop damage rating RICE ([25]; rate 63 g ai/ha)
70: AMARE phytotoxicity rating ([2]; Rate 250 g al/ha)
100: CHEAL phytotoxicity rating ([6]; Rate 125 g al/ha) | CHEAL phytotoxicity rating ([6]; Rate 250 g al/ha) | SETVI phytotoxicity rating ([7]; Rate 125 g al/ha) | SETVI phytotoxicity rating ([7]; Rate 250 g al/ha) | DIGSA phytotoxicity rating ([10]; Rate 250 g al/ha) | phytotoxicity rating AMBEL ([11]; rate 63 g ai/ha) | phytotoxicity rating AMBEL ([11]; rate 250 g ai/ha) | phytotoxicity rating ABUTH ([14]; rate 63 g ai/ha) | phytotoxicity rating ABUTH ([14]; rate 250 g ai/ha) | phytotoxicity rating IPOHE ([15]; rate 63 g ai/ha) | phytotoxicity rating IPOHE ([15]; rate 250 g ai/ha) | phytotoxicity rating CHEAL ([16]; rate 250 g ai/ha) | phytotoxicity rating CASOB ([19]; rate 250 g ai/ha) | crop damage rating SOY ([26]; rate 250 g ai/ha)
80: crop damage rating SOY ([26]; rate 63 g ai/ha)
30: ABUTH phytotoxicity rating ([4]; Rate 250 g al/ha) | CASOB phytotoxicity rating ([9]; Rate 250 g al/ha) | crop damage rating CORN ([24]; rate 250 g ai/ha) | crop damage rating RICE ([25]; rate 250 g ai/ha) | phytotoxicity rating SORHA ([12]; rate 250 g ai/ha) | phytotoxicity rating ECHCG ([18]; rate 250 g ai/ha)

Source: patent publication US6479435B1, “Diaryl ethers and processes for their preparation and herbicidal and desiccant compositions containing them” (ISK Americas Incorporated, priority 1997, dated 2002)
